Laboratory results from patent publication US5039808A, “Therapeutically active cyclopropyl substituted compound” (priority 1988, dated 1991).

Experiments:
gastric acid secretion [1] = assay: Inhibition of Gastric Acid Secretion in the Conscious Dog (histamine stimulated); type: in vivo, Harrier dogs of either sex
Protocol: (§1) The potency for inhibition of acid secretion has been measured in the male rat and the dog, both intravenously and intraduodenally. When it comes to relevance of the animal test data for potency of a given compound in man for the present type of compounds, it is believed that potency in man will correspond to a level somewhere between what is measured in the male rat and what is measured in the dog.
(§2) Harrier dogs of either sex were used. They were equipped with a duodenal fistula for the administration of test compounds or vehicle and a cannulated ventricular fistula for the collection of gastric secretions.
Before secretory tests the animals were fasted for about 18 h but water was freely allowed. Gastric acid secretion was stimulated by a 4 h infusion of histamine dihydrochloride (12 ml/h) at a dose producing about 80% of the individual maximal secretory response, and gastric juice collected in consecutive 30-min fractions. Test substance or vehicle was given id or iv 1 h after starting the histamine infusion, in a volume of 0.5 ml/kg body weight. The acidity of the gastric juice samples were determined by titration to pH 7.0, and the acid output calculated. The acid output in the collection periods after administration of test substance or vehicle were expressed as fractional responses, setting the acid output in the fraction preceding administration to 1.0. Percentage inhibition was calculated from fractional responses elicited by test compound and vehicle. ED50 -values were obtained by graphical interpolation on log dose - response curves, or estimated from single-dose experiments under the assumption of the same slope of the dose-response curve for all test compounds. All results reported are based on acid output 2 h after dosing.

gastric acid secretion [2] = assay: Inhibition of Gastric Acid Secretion in the Conscious Male Rat (pentagastrin and carbachol stimulated); type: in vivo, Male rats of the Sprague-Dawley strain; settings: second hour after administration
Protocol: as §1
Male rats of the Sprague-Dawley strain were used. They were equipped with cannulated fistulae in the stomach (lumen) and the upper part of the duodenum, for collection of gastric secretions and administration of test substances, respectively. A fourteen days recovery period after surgery was allowed before testing commenced.
Before secretory tests, the animals were deprived of food but not water for 20 h. The stomach was repeatedly washed through the gastric cannula, and 6 ml of Ringer-Glucose given s.c. Acid secretion was stimulated with a infusion during 3.5 h (1.2ml/h, s.c.) of pentagastrin and carbachol (20 and 110 nmol/kg h, respectively), during which time gastric secretions were collected in 30-min fractions. Test substances or vehicle were given iv or id at 90 min after starting the stimulation, in a volume of 1 ml/kg. Gastric juice samples were titrated to pH 7.0 with NaOH, 0.1 mol/L, and acid output calculated as the product of titrant volume and concentration. Further calculations were based on group mean responses from 4-5 rats. The acid output during the periods after administration of test substances or vehicle were expressed as fractional responses, setting the acid output in the 30-min period preceding administration to 1.0. Percentage inhibition was calculated from the fractional responses elicited by test compound and vehicle. ED50 -values were obtained from graphical interpolation on log dose-response curves, or estimated from single-dose experiments assuming a similar slope for all dose-response curves. An estimation of the bioavailability was obtained by calculating the ratio ED50 iv/ED50 id. The results reported are based on gastric acid secretion during the second hour after drug/vehicle administration.

[3] = Rough Screening Model for bioavailability: ratio ED50 iv/ED50 id of acid secretion inhibition in the rat; set-up: species or system Male rats of the Sprague-Dawley strain; settings: in vivo, ratio of ED50 values, read-out: "Bioavailability" measured by the Rough Screening Model, Rat ED50 iv/ED50 id
Protocol: Since the bioavailability model described above is time and labour intensive, and requires a large number of plasma analyses, also a rough screening model, based on relative potencies to inhibit acid secretion, has been used (see for instance: A. Goth, Medical Pharmacology, 7the ed., C. V. Mosby Company, Saint Louis 1974, p 19). Thus, the ratio (called "Bioavailability" in Table 3) between the ED50 at intravenous administration and the ED50 at intraduodenal administration was calculated.
Before secretory tests, the animals were deprived of food but not water for 20 h. The stomach was repeatedly washed through the gastric cannula, and 6 ml of Ringer-Glucose given s.c. Acid secretion was stimulated with a infusion during 3.5 h (1.2ml/h, s.c.) of pentagastrin and carbachol (20 and 110 nmol/kg h, respectively), during which time gastric secretions were collected in 30-min fractions. […] Gastric juice samples were titrated to pH 7.0 with NaOH, 0.1 mol/L, and acid output calculated as the product of titrant volume and concentration. […] The acid output during the periods after administration of test substances or vehicle were expressed as fractional responses, setting the acid output in the 30-min period preceding administration to 1.0. Percentage inhibition was calculated from the fractional responses elicited by test compound and vehicle. […]

[4] = Bioavailability in the dog, AUC method; type: in vivo, Harrier dogs of either sex; settings: id vs iv, plasma up to 3 h, extrapolated to infinite time, read-out: Bioavailability measured by the AUC-method F%, Dog
Protocol: Bioavailability is assessed by calculating the quotient between the area under plasma concentration (AUC) curve following introduodenal (id) administration and intravenous (iv) administration from the rat or the dog. Low, therapeutically relevant doses, were used. This method is scientifically recognized as valid for assessing bioavailability (see for instance: M. Rowland and T. N. Tozer, Clinical Pharmacokinetics, 2nd ed., Lea & Febiger, London 1989, p 42).
as §2
Blood samples for the analysis of test compound concentration in plasma were taken at intervals up to 3 h after dosing. Plasma was separated and frozen within 30 min after collection. AUC (area under the plasma concentration - time curve), extrapolated to infinite time, was calculated by the linear trapezoidal rule. The systemic bioavailability (F%) after id administration was calculated as 100 × (AUCid /AUCiv).

[5] = Bioavailability in the Male Rat, AUC method; type: in vivo, Male adult rats of the Sprague-Dawley strain; settings: blood, 4 umol/kg, 4 μmol/kg id and iv, up to 4 h, extrapolated to infinity, read-out: Bioavailability measured by the AUC-method F%, Rat
From the text: The results from tests on two different animal species, rat and dog, vary in regard to measured level of bioavailability for the same compound. We believe that the rat is the more relevant species for bioavailability testing. This is based on our belief that liver metabolism has the most predominant impact upon bioavailability, and that the liver metabolic pattern in man for this type of compounds is quite similar to that of the male rat (more so than of the female rat and the dog). Moreover, test results of bioavailability in the male rat will tend to give a broader "spread" compared with the test results in the dog, and thus the male rat model will give more clear differences in bioavailability between different compounds. […]
Bioavailability is assessed by calculating the quotient between the area under plasma concentration (AUC) curve following introduodenal (id) administration and intravenous (iv) administration from the rat or the dog. […]
The area under the blood concentration vs time curve, AUC, was determined by the linear trapezoidal rule and extrapolated to infinity by dividing the last determined blood concentration by the elimination rate constant in the terminal phase. The systemic bioavailability (F%) following intraduodenal administration was calculated as [formula]

[6] = Chemical stability in aqueous buffer solution; type: physicochemical; settings: low concentration
Protocol: The chemical stability of various compounds of the invention has been followed kinetically at low concentration at 37°C. in aqueous buffer solution at different pH values. The results in Table 3 show the half life (t 1/2) at pH 7, that is the time period after which half the amount of the original compound remains unchanged.

| SMILES | inhibition of acid secretion (gastric acid secretion [1]; Dog 4, 3 μmol/kg, id (footnote to id column)) [%] | inhibition of acid secretion (gastric acid secretion [1]; Dog 5, 3 μmol/kg, id (footnote to id column)) [%] | Inhibition of acid secretion, Rat ED50, id (gastric acid secretion [2]; route id) [µmol/kg] | Inhibition of acid secretion, Rat ED50, iv (gastric acid secretion [2]; route iv) [µmol/kg] | ED50 (gastric acid secretion [1]; Canis lupus familiaris, dog, route id, acid output 2 h after dosing) [µmol/kg] | inhibition of acid secretion (gastric acid secretion [1]; Dog 1, 1 μmol/kg, iv) [%] | inhibition of acid secretion (in words) (gastric acid secretion [1]; Dog 2, 1 μmol/kg, iv) | inhibition of acid secretion (gastric acid secretion [1]; Dog 3, 2 μmol/kg, iv) [%] | ED50 (gastric acid secretion [2]; route id, read-out: Inhibition of acid secretion, Rat ED50, id) [µmol/kg] | ED50 (gastric acid secretion [2]; route iv, read-out: Inhibition of acid secretion, Rat ED50, iv) [µmol/kg] | bioavailability [3] [%] | bioavailability [4] [%] | bioavailability [5] [%] | Chemical stability at pH 7, half-life (t 1/2) ([6]; 37°C) [h] | half-life ([6]; pH 7, 37°C, read-out: Chemical stability at pH 7, half-life (t 1/2) (converted)) [h] |
| --- | --- | --- | --- | --- | --- | --- | --- | --- | --- | --- | --- | --- | --- | --- | --- |
| CC(C)Oc1ccnc(C[S+]([O-])c2nc3cc(F)ccc3[nH]2)c1 (stereo not drawn) [Ref., 5-fluoro-2-[[(4-isopropoxy-2-pyridinyl)-methyl]sulfinyl]-1H-benzimidazole, reference compound] | 95 | 98 | 4.0 | 1.8 | – | – | – | – | – | – | – | – | – | – | – |
| [O-][S+](Cc1cc(OCC2CC2)ccn1)c1nc2cc(F)ccc2[nH]1 (stereo not drawn) [Example 1, 5-fluoro-2-[[(4-cyclopropyl-methoxy-2-pyridinyl)methyl]sulfinyl]-1H-benzimidazole] | – | – | – | – | 1 | 35 | no effect | 98 | 2.2 | 1.2 | 55 | 80 | 82 | 23 | 23 |
